Source: patent US20230357275A1, “SPIRO-SULFONAMIDE DERIVATIVES AS INHIBITORS OF MYELOID CELL LEUKEMIA-1 (MCL-1) PROTEIN” (Prelude Therapeutics, Incorporated, priority 2020, published 2023)

Columns and labels:
MCL-1 = target: T1, MCL-1 (Homo sapiens, UniProt Q07820); test: Cell free Mcl-1:Bim affinity assay (Mcl-1 Bim), fluorescence polarization competition; type: binding; settings: 15 nM MCL-1, 5 nM FITC-Bim tracer, 1 hour at room temperature; Ki calculated from IC50 by Nikolovska-Coleska's equation; read-out: BIM_ Ki
T1 construct: purchased BPS Bioscience
Experimental: The binding affinity of each compound was measured via a fluorescence polarization competition assay, in which the compound competes for the same binding site with the ligand, and thus leads to a dose-dependent anisotropy reduction. The tracer ligand utilized was a fluorescein isothiocyanate labelled peptide (FITC-[…]) derived from Bim (GenScript).
The assay was carried out in black half-area 96-well NBS plate (Coming), containing 15 nM of MCL-1 (BPS Bioscience), 5 nM of FITC-Bim and 3-fold serial diluted test compounds in a total volume of 50 µL of assay buffer (20 mM HEPES, 50 mM NaCl, 0.002% Tween 20, 1 mM TCEP, and 1% DMSO). The reaction plate was incubated for 1 hour at room temperature. The change of anisotropy is measured with an Envision multimode plate reader (PerkinElmer) at emission wavelength 535 nm. Fluorescence polarization was calculated in mP unit and the percentage inhibition was calculated by % inhibition = 100x(mPDMSO-mP)/(mPDMSO-mPPC), in which mPDMSO is the DMSO control, and mPPC is the positive control. IC50 values were determined from a 10-point dose response curve by fitting the percent inhibition against compound concentration using the GraphPad Prism software. The inhibition constant Ki was subsequently calculated according to the Nikolovska-Coleska’s equation (Anal. Biochem., 2004, 332, 261), […]

H929 cells = test: Cell viability assay (H929 10 FBS); type: cell-based; settings: Homo sapiens, NCI-H929, 24 hours, CellTiTer-Glo or ATPlite, read-out: H929_10FB S IC50
Experimental: Dispense 10 µL aliquot of prepared H929 cells (1:1 ratio of cells:Trypan Blue (#1450013, Bio-Rad)) onto cell counting slide (#145-0011, Bio-Rad) and obtain cell density and cell viability using cell counter (TC20, Bio-Rad). Remove appropriate volume of resuspended cells from culture flask to accommodate 4000 cells/well @ 10 µL/well. Transfer H929 cells to 50 mL conical (#430290, Corning). Spin down at 1000 rpm for 5 min using tabletop centrifuge (SPINCHRON 15, Beckman). Discard supernatant and resuspend cell pellet in modified RPMI 1640 (#10-040-CV, Coming) cell culture media containing 10% FBS (F2422-500 ML, Sigma), sodium pyruvate (100 mM) (#25-000-CL, Corning), HEPES buffer (1 M) (#25-060-CL, Coming) and glucose (200 g/L) (A24940-01, Gibco) to a cell density of 400,000 cells/mL. Dispense 10 µL of resuspended H929 cells per well in 384-well small volume TC treated plate (#784080, Greiner Bio-one) using standard cassette (#50950372, Thermo Scientific) on Multi-drop Combi (#5840310, Thermo Scientific) in laminar flow cabinet. Dispense compounds onto plates using digital liquid dispenser (D300E, Tecan). Incubate plates in humidified tissue culture incubator @ 37° C. for 24 hours. […] Read plates with microplate reader (PheraStar, BMG Labtech) using 384 well luminescence mode.

T1 sequence (Q07820 whole entry): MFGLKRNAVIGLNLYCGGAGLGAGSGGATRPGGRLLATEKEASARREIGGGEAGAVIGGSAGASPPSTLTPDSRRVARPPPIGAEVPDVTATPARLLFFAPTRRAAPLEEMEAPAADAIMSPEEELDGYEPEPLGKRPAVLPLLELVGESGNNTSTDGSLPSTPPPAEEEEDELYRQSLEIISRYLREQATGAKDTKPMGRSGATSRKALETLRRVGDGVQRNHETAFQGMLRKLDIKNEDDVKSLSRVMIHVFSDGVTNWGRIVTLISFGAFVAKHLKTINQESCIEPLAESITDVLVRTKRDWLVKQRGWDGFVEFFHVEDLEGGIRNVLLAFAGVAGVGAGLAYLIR

Ki (MCL-1): < 1 nM
IC50 (H929 cells): < 500 nM
Structure (SMILES): CN(C)C(=O)O[C@H]1/C=C/COC(C)(C)C(=O)NS(=O)(=O)c2ccc3c(c2)N(C[C@@H]2CC[C@H]21)C[C@@]1(CCCc2cc(Cl)ccc21)CO3 [Example 34, [(3R,6R,7S,8E,22S)-6′-Chloro-12,12-dimethyl-13,15,15-trioxo-spiro [11,20-dioxa-15-thia-1,14-diazatetracyclo[14.7.2.03,6.019,24]pentacosa-8,16,18,24-tetraene-22,1′-tetralin]-7-yl] N,N-dimethylcarbamate]
